Common to all, as to type: in vivo
Assay [1] relates to Yellow Fever Mosquito (Aedes aegypti, AEDSAE). The gist of the method: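 Compounds from DMSO master plates (4000 ppm stock) diluted in 90:10 water/acetone, then dispensed into six replicate plates and infested with ~1-day-old Aedes aegypti larvae in liver-powder water. Held covered at room temperature for 3 days; each well scored for larval mortality and graded on a rating scale.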

For assay [2], the system named is Green Peach Aphid (Myzus persicae, MYZUPE). Kind of assay: Bioassays on Green Peach Aphid (GPA), foliar spray on cabbage seedlings. Particulars: 72 h. Here is the method: Certain molecules disclosed in this document were tested against GPA using procedures described in the following example. In the reporting of the results, the “GPA & YFM Rating Table” was used (See Table Section).
Cabbage seedlings grown in 3-inch pots, with 2-3 small (3-5 cm) true leaves, were used as test substrate. The seedlings were infested with 20-50 GPA (wingless adult and nymph stages) one day prior to chemical application. Four pots with individual seedlings were used for each treatment. Test molecules (2 mg) were dissolved in 2 mL of acetone/methanol (1:1) solvent, forming stock solutions of 1000 ppm test molecule. The stock solutions were diluted 5× with 0.025% Tween 20 in water to obtain the solution at 200 ppm test molecule. A hand-held aspirator-type sprayer was used for spraying a solution to both sides of […] leaves until runoff. Reference plants (solvent check) were sprayed with the diluent only containing 20% by volume of acetone/methanol (1:1) solvent. Treated plants were held in a holding room for three days at approximately 25° C. and ambient relative humidity (RH) prior to grading. Evaluation was conducted by counting the number of live aphids per plant under a microscope. Percent control was measured using Abbott's correction formula (W. S. Abbott, “A Method of Computing the Effectiveness of an Insecticide” J. Econ. Entomol. 18 (1925), pp. 265-267) as follows. Corrected % Control=100*(X−Y)/X where X=No. of live aphids on solvent check plants and Y=No. of live aphids on treated plants. The results are indicated in the table entitled “Table ABC: Biological Results” (See Table Section).

The subject of assay [3] is Cabbage Looper (Trichoplusia ni, TRIPNI). Briefly: Bioassays on Cabbage Looper (CL), 128-well diet tray assay. The settings on record: Trichoplusia ni. The gist of the method: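 One to five second-instar larvae per well on artificial diet surface-treated with 50 μg/cm^2 test molecule (applied in 90:10 acetone-water, dried). Held 5–7 days at 25° C, 14:10 light-dark; percent mortality recorded per well and averaged over eight wells.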

The test system of assay [4] is Beet Armyworm (Spodoptera exigua, LAPHEG). Briefly: Bioassays on Beet Armyworm (BAW), 128-well diet tray assay. Particulars: Spodoptera exigua. The procedure, abridged: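 Diet-overlay assay: 50 μg/cm^2 compound applied in 90:10 acetone-water to artificial diet, allowed to dry, then infested with 1–5 L2 larvae/well; 8 wells/compound; covered, vented; 25° C., 14:10 L:D, 5–7 d; % mortality per well, averaged.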

The mark [5] stands for this setting: Table ABC: Biological Results, species YFM.
The mark [6] stands for this setting: Table ABC: Biological Results, species GPA, read-out: GPA.
[7] abbreviates: Table ABC: Biological Results, species CL, read-out: CL.
[8] abbreviates: Table ABC: Biological Results, species BAW, read-out: BAW.
Where [9] appears, read: Yellow Fever Mosquito, rating class.
Where [10] appears, read: Green Peach Aphid, rating class, read-out: GPA.
Setting [11] is: Cabbage Looper, rating class, read-out: CL.
The mark [12] stands for this setting: Beet Armyworm, rating class, read-out: BAW.

Like-named read-outs stand apart in the source and are kept apart here.

Consider 13 compounds from patent US20250228239A1, “MOLECULES HAVING PESTICIDAL UTILITY, AND INTERMEDIATES, COMPOSITIONS, AND PROCESSES, RELATED THERETO” (priority 2024, published 2025).

With `O=C(Nc1c(F)ccc(NC(=O)C(F)F)c1F)c1cc(NC(=O)[C@H]2[C@H](c3ccc(Cl)c(Cl)c3)C2(Cl)Cl)ccc1Cl` [F1240, 2-Chloro-5-((1R,3R)-2,2-dichloro-3-(3,4-dichlorophenyl)cyclopropane-1-carboxamido)-N-(3-(2,2-difluoroacetamido)-2,6-difluorophenyl)benzamide], the YFM result in assay [1] (setting [5]) is reported as “A (80–100)”. Further, the pest or weed control at 200 µg/mL in assay [2] (setting [6]) was in the range of 0 to 80%. The pest or weed control at 50 µg/cm2 in assay [3] (setting [7]) and in assay [4] (setting [8]) was 50 to 100% throughout.
For the compound `N#Cc1cc(F)ccc1N(Cc1ccccc1)C(=O)c1cc(NC(=O)[C@H]2[C@H](c3cc(Cl)cc(Cl)c3)C2(Cl)Cl)ccc1Cl` (relative stereo) [F1099, trans-N-Benzyl-2-chloro-N-(2-cyano-4-fluorophenyl)-5-(2,2-dichloro-3-(3,5-dichlorophenyl)cyclopropane-1-carboxamido)benzamide], the YFM result in assay [1] (setting [5]) is recorded as “A (80–100)”. In assay [2] (setting [6]), the pest or weed control at 200 µg/mL was in the range of 0 to 80%. The pest or weed control at 50 µg/cm2 in assay [3] (setting [7]) and in assay [4] (setting [8]) was 50 to 100% in each case.
Regarding `CCC(=O)Nc1c(F)ccc(NC(=O)c2cc(NC(=O)[C@H]3[C@H](c4ccc(F)c(C(F)(F)F)c4)C3(Cl)Cl)ccc2Cl)c1F` [F1371, 2-Chloro-5-((1R,3R)-2,2-dichloro-3-(4-fluoro-3-(trifluoromethyl)phenyl)cyclopropane-1-carboxamido)-N-(2,4-difluoro-3-propionamidophenyl)benzamide], the YFM entry in assay [1] (setting [5]) is “A (80–100)”. For the same compound, the pest or weed control at 200 µg/mL in assay [2] (setting [6]) lay in the range of 0 to 80%. The pest or weed control at 50 µg/cm2 in assay [3] (setting [7]) and in assay [4] (setting [8]) was 50 to 100% in each case.
As to `CC(Cl)C(=O)Nc1c(F)ccc(NC(=O)c2cc(NC(=O)[C@H]3[C@H](c4ccc(F)c(C(F)(F)F)c4)C3(Cl)Cl)ccc2Cl)c1F` (stereo partly drawn) [F1667, 2-Chloro-N-(3-(2-chloropropanamido)-2,4-difluorophenyl)-5-((1R,3R)-2,2-dichloro-3-(4-fluoro-3-(trifluoromethyl)phenyl)cyclopropane-1-carboxamido)benzamide], the YFM entry in assay [1] (setting [9]) was “B (More than 0 – Less than 80)”. Besides, the pest or weed control at 200 µg/mL in assay [2] (setting [10]) fell in the range of 0 to 80%. Further, the pest or weed control at 50 µg/cm2 in assay [3] (setting [11]) and in assay [4] (setting [12]) was 50 to 100% in each case.
Consider `C[C@H]1CC[C@@H](C(=O)Nc2c(F)ccc(NC(=O)c3cc(NC(=O)[C@H]4[C@H](c5ccc(F)c(C(F)(F)F)c5)C4(Cl)Cl)ccc3Cl)c2F)O1` [F1612, (2S,5S)-N-(3-(2-Chloro-5-((1R,3R)-2,2-dichloro-3-(4-fluoro-3-(trifluoromethyl)phenyl)cyclopropane-1-carboxamido)benzamido)-2,6-difluorophenyl)-5-methyltetrahydrofuran-2-carboxamide], for which the YFM result in assay [1] (setting [9]) is recorded as “A (80–100)”. Further, in assay [2] (setting [10]), the pest or weed control at 200 µg/mL lay in the range of 0 to 80%. In addition, the pest or weed control at 50 µg/cm2 in assay [3] (setting [11]) and in assay [4] (setting [12]) was 50 to 100% throughout.
For the compound `Nc1ccc(F)c(NC(=O)c2cc(NC(=O)[C@H]3[C@H](c4ccc(Cl)c(Cl)c4)C3(Cl)Cl)ccc2Cl)c1F` [F1250, N-(3-Amino-2,6-difluorophenyl)-2-chloro-5-((1R,3R)-2,2-dichloro-3-(3,4-dichlorophenyl)cyclopropane-1-carboxamido)benzamide], in assay [1] (setting [5]), the YFM result is on record as “A (80–100)”. The pest or weed control at 200 µg/mL in assay [2] (setting [6]) lay in the range of 80 to 100%. Further, the pest or weed control at 50 µg/cm2 in assay [3] (setting [7]) and in assay [4] (setting [8]) was 50 to 100% each time.
Regarding `O=C(Nc1ccc(F)c(NC(=O)C(F)(F)C(F)F)c1F)c1cc(NC(=O)[C@H]2[C@H](c3ccc(F)c(Cl)c3)C2(Cl)Cl)ccc1Cl` [F1703, 2-Chloro-5-((1R,3R)-2,2-dichloro-3-(3-chloro-4-fluorophenyl)cyclopropane-1-carboxamido)-N-(2,4-difluoro-3-(2,2,3,3-tetrafluoropropanamido)phenyl)benzamide], the YFM entry in assay [1] (setting [9]) is “A (80–100)”. The pest or weed control at 200 µg/mL in assay [2] (setting [10]) is 80 to 100%. The pest or weed control at 50 µg/cm2 in assay [3] (setting [11]) and in assay [4] (setting [12]) was 50 to 100% in each case.
With `CC(Br)C(=O)Nc1c(F)ccc(NC(=O)c2cc(NC(=O)[C@H]3[C@H](c4ccc(F)c(C(F)(F)F)c4)C3(Cl)Cl)ccc2Cl)c1F` (stereo partly drawn) [F1479, N-(3-(2-Bromopropanamido)-2,4-difluorophenyl)-2-chloro-5-((1R,3R)-2,2-dichloro-3-(4-fluoro-3-(trifluoromethyl)phenyl)cyclopropane-1-carboxamido)benzamide], in assay [1] (setting [9]), the YFM result is on record as “A (80–100)”. Further, the pest or weed control at 200 µg/mL in assay [2] (setting [10]) was in the range of 0 to 80%. The pest or weed control at 50 µg/cm2 in assay [3] (setting [11]) and in assay [4] (setting [12]) was 50 to 100% throughout.
With `O=C(CCCNC(=O)c1cc(NC(=O)[C@H]2[C@H](c3cc(Cl)cc(Cl)c3)C2(Cl)Cl)ccc1Cl)NCC(F)(F)F` (relative stereo) [F2080, trans-2-Chloro-5-(2,2-dichloro-3-(3,5-dichlorophenyl)cyclopropane-1-carboxamido)-N-(4-oxo-4-(2,2,2-trifluoroethylamino)butyl)benzamide], the YFM rating entry in assay [1] (Yellow Fever Mosquito, Table ABC / ABC-DP rating) is “B (More than 0 – Less than 80)”. Moreover, in assay [2] (Green Peach Aphid, Table ABC / ABC-DP rating, read-out: GPA rating), the pest or weed control at 200 µg/mL is 0 to 80%. Moreover, the pest or weed control at 50 µg/cm2 was 50 to 100% in assay [3] (Cabbage Looper, Table ABC / ABC-DP rating, read-out: CL rating) and 50 to 100% in assay [4] (Beet Armyworm, Table ABC / ABC-DP rating, read-out: BAW rating).
In the case of `O=C(CC(F)(F)F)Nc1c(F)ccc(NC(=O)c2cc(NC(=O)[C@H]3[C@H](c4cc(F)cc(C(F)(F)F)c4)C3(Cl)Cl)ccc2Cl)c1F` [F1710, 2-Chloro-5-((1R,3R)-2,2-dichloro-3-(3-fluoro-5-(trifluoromethyl)phenyl)cyclopropane-1-carboxamido)-N-(2,4-difluoro-3-(3,3,3-trifluoropropanamido)phenyl)benzamide], the YFM entry in assay [1] (setting [9]) is “A (80–100)”. Moreover, in assay [2] (setting [10]), the pest or weed control at 200 µg/mL fell in the range of 0 to 80%. Also, the pest or weed control at 50 µg/cm2 in assay [3] (setting [11]) and in assay [4] (setting [12]) was 50 to 100% each time.
As to `O=C(Nc1ccc(F)c(NC(=O)C(F)(F)Cl)c1F)c1cc(NC(=O)[C@H]2[C@H](c3ccc(F)c(Cl)c3)C2(Cl)Cl)ccc1Cl` [F1697, 2-Chloro-N-(3-(2-chloro-2,2-difluoroacetamido)-2,4-difluorophenyl)-5-((1R,3R)-2,2-dichloro-3-(3-chloro-4-fluorophenyl)cyclopropane-1-carboxamido)benzamide], the YFM result in assay [1] (setting [9]) was “A (80–100)”. Also, the pest or weed control at 200 µg/mL in assay [2] (setting [10]) was 80 to 100%. The pest or weed control at 50 µg/cm2 in assay [3] (setting [11]) and in assay [4] (setting [12]) was 50 to 100% in each case.
Regarding `CCCC(=O)Nc1c(F)ccc(NC(=O)c2cc(NC(=O)[C@H]3[C@H](c4ccc(F)c(Cl)c4)C3(Cl)Cl)ccc2Cl)c1F` [F1705, N-(3-Butyramido-2,4-difluorophenyl)-2-chloro-5-((1R,3R)-2,2-dichloro-3-(3-chloro-4-fluorophenyl)cyclopropane-1-carboxamido)benzamide], the YFM result in assay [1] (setting [9]) is “B (More than 0 – Less than 80)”. Besides, the pest or weed control at 200 µg/mL in assay [2] (setting [10]) was 80 to 100%. The pest or weed control at 50 µg/cm2 in assay [3] (setting [11]) and in assay [4] (setting [12]) was 50 to 100% throughout.
Turning to `Nc1ccc(F)c(NC(=O)c2cc(NC(=O)[C@H]3[C@H](c4cc(Cl)c(Cl)c(Cl)c4)C3(Cl)Cl)ccc2Cl)c1F` [F1228, N-(3-Amino-2,6-difluorophenyl)-2-chloro-5-((1R,3R)-2,2-dichloro-3-(3,4,5-trichlorophenyl)cyclopropane-1-carboxamido)benzamide], in assay [1] (setting [5]), the YFM entry is “A (80–100)”. Besides, the pest or weed control at 200 µg/mL in assay [2] (setting [6]) is 0 to 80%. For the same compound, the pest or weed control at 50 µg/cm2 in assay [3] (setting [7]) and in assay [4] (setting [8]) was 50 to 100% throughout.
